The record followed here is the METLIN SMRT retention time set (Domingo-Almenara et al. 2019).

The series can be described thus: gradient 5% acetonitrile 3 min, to 50% in 2 min, to 85% in 15 min, held 3 min, 100 µL/min. Conditions: column: Zorbax Extend-C18 2.1 x 50 mm; eluents: water / acetonitrile, 0.1% formic acid. The method in brief:
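The mobile phases were water and acetonitrile, each with 0.1% formic acid, pumped at 100 μL/min through a Zorbax Extend-C18 column (2.1 × 50 mm, 1.8 μm). Pure standards were injected as mixtures of ~100 molecules and detected by a quadrupole time-of-flight mass spectrometer in positive and negative ionization mode. Retention time came from computationally picked adduct peaks, each inspected by hand.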
The compound `Cc1noc2nc(C)n(CC(=O)NC(C)CCc3ccccc3)c(=O)c12` (stereo not given) showed an RP-LC retention time of 842 s. The result for `CC(C)N1CCC(CNC(=O)c2cccc3ccccc23)CC1` reads 546 s; that for `CCOCCCNC(=O)N1CCC2(CC1)NC(=O)c1ccccc1O2`, 652 s. The result for `O=C(C1=CN(c2ccc(F)c(Cl)c2)c2ccccc2S1(=O)=O)N1CCOCC1` reads 786 s; that for `Cc1cc(C)cc(NS(=O)(=O)c2cc(-c3cc(C(F)(F)F)on3)sc2C)c1`, 1230 s; that for `CC1=C(C(=O)Nc2cc(Cl)ccc2C(=O)NC2CCC(C)CC2)SCCO1` (stereo not given), 1310 s. `Cc1ccc2c(c1)NC1(CCN(S(=O)(=O)c3ccccc3F)CC1)c1cccn1-2` gave an RP-LC retention time of 881 s. The compound `Cc1ccc(-c2nc(-c3ccc4c(c3)nnn4CCC(=O)N3CCCC3)no2)c(C)c1` showed an RP-LC retention time of 1090 s. Under `O=C(NCC1CC1)c1cn(-c2cc(-c3nc(C4CC4)no3)ccn2)cn1` stands 848 s.

In the case of `CC(C)n1c(=O)c2ccccc2n(Cc2nc(-c3ccccc3Br)no2)c1=O`, the RP-LC retention time is 1140 s. The result for `O=C(NCc1c(-c2ccc(Cl)cc2)nc2n1CCS2)c1ccco1` reads 668 s; that for `CCC(=O)N1CCc2sc(C(=O)NCc3ccc(CC)cc3)cc2C1`, 824 s. With `c1cc(-c2noc(C3CCOC3)n2)cc(N2CCOCC2)n1` (stereo not given), the RP-LC retention time came out at 651 s.

Take `CC(C)(Cc1c[nH]c2ccccc12)NCC(O)COc1ccccc1C#N` (stereo not given): the RP-LC retention time is 757 s.

Compound `COc1ccc2c(c1)C1(CCN(C(=O)c3ccc(C#N)cc3)C1)C(=O)N2C` (stereo not given) showed an RP-LC retention time of 735 s. Under `Cc1cccc(S(=O)(=O)N2CCCN(c3ccc(=O)n(-c4ccccc4)n3)CC2)c1` stands 866 s.

`Nc1ncnc(Nc2ccc(Cl)cc2)n1`: the RP-LC retention time turned out to be 704 s. Under `Cc1cc(F)ccc1NC(=O)CCc1c(C)nn(-c2cc(N(C)C)ncn2)c1C` stands 778 s; under `CN1c2ccccc2C(=O)NC12CCN(C(=O)Nc1ccccc1Cl)CC2`, 761 s.

The compound `Cc1ccc(Nc2nc(-c3cc(C)c(C)cc3C)cs2)nc1` displayed an RP-LC retention time of 1010 s. Under `COc1ccc(N2CC(c3nc(-c4ccc(Br)cc4)no3)CC2=O)cc1` (stereo not given) stands 1050 s; under `CCc1ccc(CNC(=O)c2cc3c(=O)n(C)c(=O)n(C)c3s2)cc1`, 830 s; under `CCn1cc(CC(=O)Nc2ccc(OC)c(OC)c2)c2cccnc21`, 664 s. In the case of `CN(C)S(=O)(=O)c1ccc(-c2nnc(C(=O)NCc3ccccc3)o2)cc1`, the RP-LC retention time was 831 s. Under `CCc1cc(=O)n(CC(=O)Nc2ccc(F)cc2F)c(N2CCOCC2)n1` stands 743 s; under `CN1C(=O)COc2cc(-c3noc(C(=O)NCCc4ccc(S(N)(=O)=O)cc4)n3)ccc21`, 721 s. Under `O=C(c1cccs1)N1CCC(c2nncn2-c2ccccc2)CC1` stands 626 s.

As for `CCCNc1cc(N2CCC(CCC(=O)N(CC)CC)CC2)ncn1`, the RP-LC retention time was 538 s. Under `CCOC(=O)c1c(C)c(CCC(=O)NCCN2CCOCC2)n(C)c1C` stands 597 s; under `O=C(Cn1nc2c(cc1=O)CCCC2)Nc1nc(-c2ccccn2)cs1`, 609 s. The result for `Cn1cnc2c(C(=O)N3CCN(c4ncccn4)CC3)nn(-c3ccc(Cl)cc3)c2c1=O` reads 766 s.

The compound `O=C(c1nnc(-c2ccc(S(=O)(=O)N3CCOCC3)cc2)o1)N1CCOCC1` gave an RP-LC retention time of 689 s. Under `Cc1ccc2[nH]cc(CCNC(=O)CC3CCN(C(=O)C4CCCCC4)CC3)c2c1` stands 850 s; under `O=C(NCc1ccc(Cl)cc1)c1cccn1-c1cccnc1`, 742 s. The result for `COc1ccc(-c2cc(N3CCN(C(=O)Nc4cc(OC)ccc4OC)CC3)ncn2)cc1` reads 685 s; that for `O=C(NCC1(N2CCOCC2)CCOC1)Nc1cc(F)cc(F)c1` (stereo not given), 604 s. The compound `NC(=O)c1ccccc1NC(=O)CCCn1cnc(-c2ccc(F)cc2)cc1=O` yielded an RP-LC retention time of 666 s. On to `CCc1cc(C(=O)Nc2ccccc2OC)nc2ccnn12`, for which the RP-LC retention time is 1090 s. The result for `COc1cc(OC)cc(C(=O)Nc2nc(-c3ccc4c(c3)N(C)C(=O)C(C)O4)cs2)c1` (stereo not given) reads 1040 s. Under `CCN1C(=O)c2cccnc2Sc2cc(NC(=O)c3ccc4c(c3)OCO4)ccc21` stands 802 s; under `Nc1n[nH]c(-c2ccc(Cl)cc2)n1`, 605 s; under `Cc1ccccc1Cn1nc(-c2nc(C(C)(C)C)no2)ccc1=O`, 1120 s.

`CCc1ccc(N2C(=O)N(CC(=O)N3CCOc4ccc(C)cc43)C3CS(=O)(=O)CC32)cc1` (stereo not given) yielded an RP-LC retention time of 966 s. Under `CCOc1ccccc1NC(=O)N1CCN(c2ccc(=O)n(-c3ccc(C)cc3)n2)CC1` stands 915 s; under `O=C(NCC1CCN(c2cc(-c3ccncc3)[nH]n2)CC1)c1ccc2c(c1)OCO2`, 598 s. Under `CC(C)CC(=O)Nc1ccc(-n2cnc(C(=O)N3CCSCC3)c2)nc1` stands 709 s. `Cn1nc(C(=O)N2CCCCC2)c2c1CCN(C(=O)CCC(=O)NCC1CCCO1)C2` (stereo not given): the RP-LC retention time came to 608 s. The result for `CC(C)NC(=O)c1ccc(OCC2CCCN2C(=O)Cc2cccs2)cc1` (stereo not given) reads 807 s.

Take `C[C@H]1CN(C(=O)Nc2ccc3c(c2)CCC3)C[C@@H]1c1nc(-c2cccnc2)no1`: the RP-LC retention time came to 866 s. Under `Cc1ccc(S(=O)(=O)N2C(=O)CCC2C(=O)NC2CCCC2)cc1C` (stereo not given) stands 855 s; under `COc1ccc(C2CN(S(=O)(=O)c3cccc(C#N)c3)CCN2C)cc1` (stereo not given), 550 s.

As to `Cc1cccc(-n2c(Cc3cccn3C)nnc2SCC(=O)NCC2CCCO2)c1C` (stereo not given), the RP-LC retention time amounted to 776 s.

For `CN(Cc1ccccc1)C(=O)CN1c2ccc(F)cc2-c2ccccc2S1(=O)=O`, the RP-LC retention time is 994 s. Under `CCN(CC)CCNC(=O)C1c2ccccc2C(=O)N(C)C1c1cccs1` (stereo not given) stands 611 s.

As for `O=c1n(Cc2cc(F)cc(F)c2)nc2c(S(=O)(=O)N3CCOCC3)cccn12`, the RP-LC retention time is 743 s. The result for `O=C(c1ccc(N2CCCC2=O)cc1)N1CCCn2nc(-c3ccc(F)cc3)cc2C1` reads 708 s. The result for `Cc1nc(CC(=O)Nc2ccc(F)cc2F)sc1C(=O)NC1CC1` reads 696 s; that for `CCOc1ccc(-c2cc3c(=O)n(Cc4nc(-c5ccc(OC)c(OC)c5)no4)ncn3n2)cc1`, 1060 s; that for `COc1ccc(CN(C)Cc2cc(=O)n3cc(Cl)ccc3n2)cc1OC`, 606 s. The result for `CSc1ccc(NC(=O)N2CCC(c3cc(N)on3)CC2)cc1` reads 713 s.
